Assay results from patent EP0594651B1, “DRIED BLOOD CELLS AND METHOD OF PREPARATION” (QUADRANT HOLDINGS CAMBRIDGE LIMITED, priority 1991, dated 1993).

Assays:
erythrocytes [1] = experiment: Erythrocytes incubated in an organic osmolyte, freeze-dried, rehydrated in PBS with 40% glucopyranosyl sorbitol; intact erythrocytes counted microscopically (Example 1); assay type: cell-based; details: for % Intact Cells: incubated 2 hours at 37°C, freeze-dried; for freeze drying of erythrocytes: result in words
Method: Whole blood was collected by venepuncture into the anticoagulant EDTA (used at a final concentration of 5mM), and then incubated for 2 hours at 37°C in one of the following osmolytes: proline, carnitine and betaine, over a range of concentrations. The samples were then frozen into a thin shell on the walls of the vessel and then placed under vacuum for drying. The vacuum was typically less than 25 µm Hg ([…]), and the samples were held under this vacuum for approxiamtely 16 hours.
The freeze-dried samples were rehydrated by resuspending some of the dry material in an hypertonic solution consisting of phosphate buffered saline (PBS) containing glucopyranosyl sorbitol at a concentration of 40%. The samples were then assesed microscopically to determine the number of intact erythrocytes.

erythrocytes [2] = experiment: Freeze-dried blood rehydrated with solution A and PBS; intact cells assessed by fluorescein dye exclusion (Example 4); assay type: cell-based
Method: The solutions were incubated at 37°C for 2 hours and then frozen onto the walls of a […] in a thin shell by first immersing the flask while rotating it, in a mixture of solid carbon dioxide and methylated spirits. […] The blood was dried under this vacuum for at least 16 hours. […] The dry blood was rehydrated with 1 volume of solution A (see Example 2), and when all the dry blood was resuspended, an equivalent volume PBS was added.

erythrocytes [3] = experiment: Freeze-dried erythrocytes rehydrated with solution A, then PBS; integrity assessed microscopically (Example 2); assay type: cell-based; details: then equivalent amount of PBS
Method: After the dehydrated samples were resuspended fully, an equivalent amount of PBS was added, and the integrity of the erythrocytes were assessed microscopically.

red cells = red cells dried in proline plus sugar 10% (w/v), stored at room temperature for 3 months
Method: Fresh blood was withdrawn by venepuncture from healthy volunteers into the anti-coagulant EDTA (final concentration 5mM). The blood was centifuged and then washed 3 to 4 times in a potassium free buffered salt solution which contains the following ingredients: Table 5
The cells were then resuspended finally at 50% and incubated for 60 minutes at 4°C, and aliquots were then dried at ambient temperature (evaporation cooled the samples) under a vacuum of less than 5 x 10^-2 mbar (50 Pa) for approximately 16 hours.
The red cells were dried in aliquots of 250µl and the rehydration was inititated by the addition of 250µl of solution 1 to the dry aliquots. The cells were allowed to rehydrate slowly, and when in solution, 500µl of solution 2 was added. At this stage the cells were viewed under the microscope and the number of apparently intact cells was counted. A further 1 ml of solution 2 was then added and the cells were then centrifuged at 5,220 x g for 5 minutes. The supernatant was removed and the cells were resuspended in solution 2. For typing the red cell antigenic status, an equal volume of the red cells in solution 2 was added to an equal volume of an antibody mixed 1 : 1 with solution 1.
The concentration of each sugar used was 10% (w/v). […]

platelets = experiment: Freeze-drying of platelets from Platelet Rich Plasma and recovery of whole platelets on rehydration (Example 5); assay type: cell-based; details: result in words
Method: Blood was collected into the anti-coagulant, acid-citrate-dextrose, and the mixture then centrifuged at approximately 1100 x g for three minutes to harvest Platelet Rich Plasma.
Aliquots of the Platelet Rich Plasma were then incubated in the presence of varying concentrations of proline, carnitine and trehalose on their own, and proline and carnitine in combination with trehalose, as well as a test sample in 7.5% NaCl. All samples were incubated for 37°C for 2 hours on a slowly moving rotary mixer, before freezing and drying.
The dehydrated samples were rehydrated with either 1 volume of water, or 1 volume of water containing 2% carnitine. […] Results obtained when rehydrating with water in the presence of 2% carnitine were generally about 25% better than those achieved with water alone.

blood cells = experiment: Vacuum-drying of blood cells in trehalose without organic osmolyte, then rehydration; assay type: cell-based; details: result in words; vacuum-drying in the absence of an organic osmolyte

SMILES | % Intact Cells (erythrocytes [1]; Final Concentration 5) [%] | % Intact Cells (erythrocytes [1]; Final Concentration 10) [%] | % Intact Cells (erythrocytes [1]; Final Concentration 15) [%] | % Intact Cells (erythrocytes [1]; Final Concentration 20) [%] | freeze drying of erythrocytes (erythrocytes [1]) | % Intact Cells (erythrocytes [2]) [%] | % Intact Cells (erythrocytes [3]) [%] | % apparently intact cells (red cells) [%] | platelets recovered on reconstitution (platelets) | cells on rehydration (blood cells)
C[N+](C)(C)CC(=O)O [Betaine, betaine] | 0 | 35 | < 5 | 0 |  |  |  |  |  | 
C[N+](C)(C)CC(O)CC(=O)[O-] (stereo not drawn) [Carnitine, carnitine] | 0 | < 1 | 75 | 62 | particularly successful | 70 | 87 |  |  | 
O=C(O)[C@@H]1CCCN1 [Proline, proline] | 0 | 62 | 81 | < 1 | particularly successful | 78 | 79 | 67 |  | 
OC[C@H]1O[C@H](O[C@H]2O[C@H](CO)[C@@H](O)[C@H](O)[C@H]2O)[C@H](O)[C@@H](O)[C@@H]1O [trehalose] |  |  |  |  |  |  |  |  | almost exclusively 'ghost' platelets | only a very small percentage of cells
